Here are results for 3 compounds from patent US20220183994A1, “DELIVERY DEVICES FOR LOCALIZED DELIVERY OF ANTIMICROBIAL, ANTI-INFLAMMATORY, AND ANTIOXIDANT AGENTS” (priority 2019, published 2022).

What is called MIC90 is the lowest concentration that inhibits either 90% of growth or 90% of the strains tested, depending on the study.

Like-named read-outs stand apart in the source and are kept apart here.

Series [1] can be described thus: Total Antioxidant Capacity Assay (Trolox standard curve, Cu+2 probe). To be noted: 10 mM antioxidant, compared with trolox. As for the experimental part:
Activity of antioxidants. […] A standard curve correlating the Trolox concentration to the antioxidant capacity was generated according to manufacturer's protocol. […] Two million 16HBE cells were seeded into each well of a 12-well plate and incubated overnight as described above. […] Finally, the insoluble cell debris was removed by centrifugation and the supernatant analyzed as described above to determine the total antioxidant capacity. All experiments were performed with 4 technical replicates and two biological replicates.

Series [2] deals with 16HBE cells.
Protocol: Cells were seeded at a density of 25,000 cells/well in a 96-well plate and incubated overnight as described above. […] ALAMARBLUE® test reagent was added to each well, and the plates were incubated as described above. At 8-hour and 24-hour timepoints, absorbance was measured at 570 and 600 nm, normalized to media only controls, and analyzed per manufacturer's instructions. All experiments were performed with 6 technical replicates and 3 biological replicates.
Statistics. All data were analyzed using GraphPad Prism 7 (GraphPad Software, Inc., La Jolla, Calif.). […] Additionally, non-linear regression was used to deduce the lethal dose at median cell viability (LD50) for cell viability assays.
The test system of series [3] is human bronchial epithelial (16HBE) cells. Nature of the series: Cellular ROS/Superoxide Detection Assay in silver-exposed cells. The format is cell-based. As for the experimental part: Cellular ROS and superoxide levels were measured in 16HBE cells using a Cellular ROS/Superoxide Detection Assay Kit according to manufacturer's recommended protocol. Briefly, cells were seeded at a density of 25,000 cells/well in a black wall/clear bottom 96-well plate and incubated for 24 h as described above. Next, the feeding media was aspirated and cells were incubated with fresh media supplemented with or without 10 mM NAC for 2 h. […] Upon staining, the fluorescence signal from the two fluorescent dyes, green signal from ROS detection probe (Ex/Em=490/525 nm) and orange signal from superoxide detection probe (Ex/Em=550/620 nm), were quantified using a BioTek Instruments Cytation 5 Multimode Reader at 0, 4, 6, 8, and 24 h. […] All experiments were performed with 6 technical replicates and a minimum of 2 biological replicates.

In series [4] the test system is 16HBE cells. Nature of the series: Glucose/lactate (BioProfile analyzer) and metabolite pool size and labeling (GC-MS). The format is cell-based, human. As for the experimental part: Analysis of total metabolite pool size and metabolite labeling patterns using Gas Chromatography-Mass Spectroscopy. 16HBE cells were seeded at a density of 250,000 cells per dish in a 60 mm cell culture dish and incubated until they reached 90% confluency. During this period, feeding media was replaced every 48 h. Once confluent, the media was aspirated, cells were washed with 1× PBS, and incubated with 2 mL 0 or 10 mM NAC for 2 h. […] At 8 h, the feeding medium from each plate was collected, centrifuged at 1000 rpm for 5 min to remove any cell debris, and frozen at −80° C., until further analysis. The cells were washed twice with 1× PBS, re-suspended by gentle scraping in 1 mL chilled 50% methanol solution, cell lysate collected in centrifuge tubes, flash frozen using liquid nitrogen, and stored at −80° C. till analysis.
MEM and stock solution of 4 mM GLN-10 mM D-[U^13C]-GLC medium treated in an identical manner were used as controls.
Cell suspensions frozen in 50% methanol were thawed and subjected to three additional freeze-thaw cycles using liquid nitrogen and a water bath. Subsequently, the cell suspensions were centrifuged at 14,000 rpm for 10 min to remove cell debris, and the supernatants were transferred to individually labeled glass drying tubes. 10 μl of an internal standard (50 nmols of sodium 2-oxobutyrate) was added to each tube at this time, and the samples were air-dried on a heat block. The dried samples were derivatized by addition of 100 μl of Tri-sil HTP reagent (Thermo Scientific) to each tube, capping the tube, vortexing the samples, and placing them on the heat block for an additional 30 min. The derivatized samples were transferred to auto-injector vials and analyzed using gas chromatography-mass spectroscopy (GC-MS; Agilent Technologies, Santa Clara, Calif.). Separately, the cell pellets with residual cell lysate was collected, contents thoroughly mixed with 200 μL 0.1 N sodium hydroxide, and heated to 100° C. to extract and solubilize the proteins. The samples were cooled and analyzed using a standard BCA assay to quantify the protein content. All metabolite concentrations determined using the BioProfile Basic-4 analyzer (NOVA) and GC-MS were normalized with the protein content.

Series [5] deals with 16HBE cells. Nature of the series: ATP content (ATP determination kit). The format is cell-based, human. As to conditions: 10 mM NAC pre-incubation, silver acetate 8 h, vs cells exposed to silver alone.
Protocol: 50,000 16HBE cells were seeded in each well of a 96-well plate and the cells were allowed to attach. At 24 h, media was aspirated, and cells were pre-incubated with 80 μL of 0 or 10 mM concentrations of NAC for 2 h. […] Finally, the cell lysate was collected and the ATP concentration determined and correlated to an established standard curve. Briefly, a standard reaction mixture consisting of molecular grade water, reaction buffer, Dithiothreitol (DTT) solution, D-luciferin, and firefly luciferase at manufacturer recommended concentrations was prepared. Next, 10 μL of standard ATP solution or cell lysate was mixed with 90 μL standard reaction mixture in a 96-well white bottom plate and luminescence was measured at 560 nm. Background luminescence was subtracted from all readings and the data were normalized to drug free controls.
Series [6] concerns 31 P. aeruginosa isolates. Description: MIC90/MBC90 over expanded isolate panel. The format is cell-based, Pseudomonas aeruginosa.
Where [7] appears, read: 50 μg/mL silver acetate after 10 mM antioxidant pre-incubation.

On to `O=C1O[C@H]([C@@H](O)CO)C(O)=C1O` [Ascorbic Acid, ascorbic acid], for which the “antioxidant capacity, trolox equivalent” value in series [1] is reported as 40 fold. In addition, the cell survival was 22% in the series with 16HBE cells [2] (setting [7]); “significantly (p<0.05) higher” in the series with 16HBE cells [2] (7.5 and 10 mM ascorbic acid pre-incubation, up to 100 μg/mL silver acetate).

Consider `CC(=O)N[C@@H](CS)C(=O)O` [NAC, N-acetyl cysteine], for which, in series [3], the “effect of NAC pre-incubation itself on superoxide levels” value is “no effect”. Besides, the superoxide levels entry in series [3] (10 mM NAC pre-incubation, 10, 20, and 50 μg/mL silver acetate, 8 and 24 hours) is on record as “significantly (p≤0.001) lower”; in series [3] (NAC pre-incubation, 100 μg/mL silver acetate, 8 hours) it was “significantly (p≤0.01) lower”; in series [3] (NAC pre-incubation, 100 μg/mL silver acetate, 24 hours) it was “not at 24 hours”. Besides, in series [3] (10 mM NAC pre-incubation, silver acetate higher than 20 μg/mL, 8 and 24 hours), the ROS levels entry is on record as “significantly (p≤0.001) lower”. The “ROS induced by NAC pre-incubation itself” value in series [3] (subsides after 8 hours) is “initially induces ROS”. Also, the “lactate levels (GC-MS)” value with 16HBE cells [4] (NAC pre-incubated cells, 50 μg/mL silver acetate only) is “significantly higher”. In addition, the “citrate, glutamate, fumarate, and malate levels” value in the series on 16HBE cells [4] (NAC pre-incubated cells, 30, 40, 50, and 75 μg/mL silver acetate) is on record as “significantly (p≤0.05) higher”. In the series with 16HBE cells [4] (NAC pre-incubated cells, 50 and 75 μg/mL silver acetate), the aspartate levels entry is reported as “significantly (p≤0.05) higher”. The “glucose consumption and lactate production” value with 16HBE cells [4] (cells pre-treated with 0 vs 10 mM NAC) was “No significant difference”. In addition, the “labeling patterns of key metabolites” value with 16HBE cells [4] (pre-incubation with NAC) was “does not appreciably alter”. In addition, the ATP production result in the series with 16HBE cells [5] was “significantly higher”. Moreover, in the series with 16HBE cells [2] (setting [7]), the cell survival came out at 86%.

Compound `CC(C)Cc1ccc(C(C)C(=O)O)cc1.[Ag]` (stereo not drawn) [Silver Ibuprofen, silver salt of ibuprofen] gave an MBC90 in series [6] (concentration required to eradicate 90% of 31 P. aeruginosa isolates) of 4 µg/mL. The compound further yielded an MIC90 in series [6] (concentration required to inhibit 90% of 31 P. aeruginosa isolates) of 4 µg/mL.
